Results published in US7598255B2 (Janssen Pharmaceutica NV, priority 2005, dated 2009).
Structures can show the parent of a compound that is named as a salt.

Legend:
[1] = biological target: 5-HT2B receptor (Homo sapiens, UniProt P41595); test: Affinity for 5HT2 receptor binding sites, h5-HT2B, [3H]mesulergine; settings: CHO h5-HT2B membranes
[2] = biological target: T1, human recombinant 5-HT2C receptor (Homo sapiens, UniProt P28335); test: Affinity for 5HT2 receptor binding sites, h5-HT2C, [3H]mesulergine; settings: CHO h5-HT2C membranes
T1 sequence (P28335 33-458): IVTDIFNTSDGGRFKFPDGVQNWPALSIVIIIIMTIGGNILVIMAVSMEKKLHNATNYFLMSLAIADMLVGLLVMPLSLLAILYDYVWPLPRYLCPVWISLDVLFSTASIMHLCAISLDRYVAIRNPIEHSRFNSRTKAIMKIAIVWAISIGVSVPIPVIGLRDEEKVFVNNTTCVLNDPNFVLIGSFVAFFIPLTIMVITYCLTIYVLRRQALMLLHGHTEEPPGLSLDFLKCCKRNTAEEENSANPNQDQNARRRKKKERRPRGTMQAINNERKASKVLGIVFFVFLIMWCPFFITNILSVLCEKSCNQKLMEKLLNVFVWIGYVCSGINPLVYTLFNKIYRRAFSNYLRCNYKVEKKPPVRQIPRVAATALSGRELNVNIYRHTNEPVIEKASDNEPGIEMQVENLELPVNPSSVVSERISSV

[3] = biological target: rat 5-HT7a receptor (Rattus norvegicus, UniProt P32305); test: Affinity for 5-HT7 receptor binding sites, radioligand binding with [3H]5-CT; settings: membranes of HEK-293 cells with rat 5-HT7a, 1 nM [3H]5-CT
Chain of rat 5-HT7a receptor (P32305 whole entry): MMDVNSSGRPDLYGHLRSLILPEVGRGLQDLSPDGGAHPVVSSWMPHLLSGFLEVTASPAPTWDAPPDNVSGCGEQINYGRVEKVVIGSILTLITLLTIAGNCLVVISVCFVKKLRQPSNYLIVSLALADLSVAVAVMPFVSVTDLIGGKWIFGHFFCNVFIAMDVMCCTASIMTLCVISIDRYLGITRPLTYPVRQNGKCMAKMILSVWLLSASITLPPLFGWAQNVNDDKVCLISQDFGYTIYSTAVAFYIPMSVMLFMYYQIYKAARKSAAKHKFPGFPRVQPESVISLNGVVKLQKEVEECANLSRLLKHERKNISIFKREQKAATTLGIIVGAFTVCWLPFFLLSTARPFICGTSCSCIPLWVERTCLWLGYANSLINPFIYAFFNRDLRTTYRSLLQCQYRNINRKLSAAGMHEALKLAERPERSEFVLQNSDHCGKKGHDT
Procedure, shortened: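 Competition binding on membranes from HEK-293 cells stably expressing rat 5-HT7a, 135 μg protein/mL in 50 mM Tris-HCl pH 7.5, 5 mM EDTA. Incubated 60 min at RT with 1 nM [3H]5-CT and increasing compound concentrations; nonspecific binding with 10 μM 5-HT. Filtration and scintillation counting, in triplicate.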

[4] = biological target: human recombinant 5-HT6 receptor (Homo sapiens, UniProt P50406); test: Affinity for 5-HT6 receptor binding sites, [3H]LSD; settings: HEK-293 h5-HT6 membranes
Chain of human recombinant 5-HT6 receptor (P50406 whole entry): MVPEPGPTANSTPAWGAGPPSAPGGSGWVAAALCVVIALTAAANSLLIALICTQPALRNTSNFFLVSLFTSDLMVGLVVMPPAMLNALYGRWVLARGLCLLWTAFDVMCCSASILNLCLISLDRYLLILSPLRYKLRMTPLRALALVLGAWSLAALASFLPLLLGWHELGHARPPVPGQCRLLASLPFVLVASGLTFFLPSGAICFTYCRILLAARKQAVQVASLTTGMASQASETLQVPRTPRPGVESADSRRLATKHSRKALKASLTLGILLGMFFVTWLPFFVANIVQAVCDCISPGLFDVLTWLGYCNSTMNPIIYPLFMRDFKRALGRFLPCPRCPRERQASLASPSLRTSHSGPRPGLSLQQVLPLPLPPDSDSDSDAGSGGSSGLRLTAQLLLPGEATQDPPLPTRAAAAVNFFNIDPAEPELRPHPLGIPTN

[5] = biological target: 5-HT2A receptor (Homo sapiens, UniProt P28223); test: Affinity for 5-HT2A receptor binding sites, radioligand binding with [3H]ketanserin; settings: read-out: Ki 5-HT2A, rat cortex membranes (assay 2) or NIH3T3 h5-HT2A membranes (assay 3), table does not say which

Chain of 5-HT2B receptor (P41595 whole entry): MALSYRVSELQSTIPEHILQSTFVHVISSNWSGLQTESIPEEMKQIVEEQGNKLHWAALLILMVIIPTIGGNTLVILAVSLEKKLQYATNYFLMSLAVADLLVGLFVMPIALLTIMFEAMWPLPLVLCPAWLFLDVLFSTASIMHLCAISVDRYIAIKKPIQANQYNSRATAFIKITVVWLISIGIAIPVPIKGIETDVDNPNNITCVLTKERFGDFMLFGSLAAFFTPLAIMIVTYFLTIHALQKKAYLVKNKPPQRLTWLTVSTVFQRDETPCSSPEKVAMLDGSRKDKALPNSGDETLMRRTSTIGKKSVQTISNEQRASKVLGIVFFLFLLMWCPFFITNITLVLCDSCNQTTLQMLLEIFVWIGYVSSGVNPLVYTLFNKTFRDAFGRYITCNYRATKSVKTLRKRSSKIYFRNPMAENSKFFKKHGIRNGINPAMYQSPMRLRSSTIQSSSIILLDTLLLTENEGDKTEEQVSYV

Work on `CCC(C)c1nc2c(c(-c3ccc(F)cc3)n1)CNCC2` (stereo not drawn) [Example 3, 2-sec-Butyl-4-(4-fluoro-phenyl)-5,6,7,8-tetrahydro-pyrido[4,3-d]pyrimidine hydrochloride] yielded a Ki [1] of 2250 nM, a Ki [2] of 1020 nM and a Ki [3] greater than 10000 nM. It also gave a Ki [4] greater than 10000 nM.
For `Cc1ccc(-c2nc(Cc3ccccc3)nc3c2CNCC3)cc1` [Example 8, 2-Benzyl-4-p-tolyl-5,6,7,8-tetrahydro-pyrido[4,3-d]pyrimidine], the Ki [5] was 20 nM, the Ki [1] was 1000 nM and the Ki [2] was 320 nM. The Ki [3] was 1000 nM and the Ki [4] was 200 nM.
Work on `CC(C)c1nc2c(c(-c3ccc(Cl)cc3)n1)CNCC2` [Example 29, 4-(4-Chloro-phenyl)-2-isopropyl-5,6,7,8-tetrahydro-pyrido[4,3-d]pyrimidine] yielded a Ki [5] of 240 nM, a Ki [1] of 1600 nM and a Ki [2] of 2000 nM. For the same molecule, the Ki [3] was greater than 10000 nM and the Ki [4] was greater than 10000 nM.
`Fc1ccc(-c2nc(C3CCCC3)nc3c2CCNCC3)cc1` [Example 46, 2-Cyclopentyl-4-(4-fluoro-phenyl)-6,7,8,9-tetrahydro-5H-pyrimido[4,5-d]azepine] showed a Ki [5] of 14 nM, a Ki [1] of 30 nM and a Ki [2] of 200 nM. It also gave a Ki [3] of 120 nM and a Ki [4] of 100 nM.
Work on `Cc1ccc(-c2nc(C3CCCC3)nc3c2CCNCC3)cc1` [Example 47, 2-Cyclopentyl-4-p-tolyl-6,7,8,9-tetrahydro-5H-pyrimido[4,5-d]azepine] yielded a Ki [1] of 1 nM, a Ki [2] of 22 nM and a Ki [3] of 30 nM. The Ki [4] was 12 nM.
`COc1ccc(-c2nc(C3CCCC3)nc3c2CCNCC3)cc1` [Example 48, 2-Cyclopentyl-4-(4-methoxy-phenyl)-6,7,8,9-tetrahydro-5H-pyrimido[4,5-d]azepine] was tested, and the Ki [5] was 20 nM, the Ki [1] was 3 nM and the Ki [2] was 100 nM. It also gave a Ki [3] of 40 nM and a Ki [4] of 24 nM.
With `N#Cc1ccc(-c2nc(C3CCCC3)nc3c2CCNCC3)cc1` [Example 49, 4-(2-Cyclopentyl-6,7,8,9-tetrahydro-5H-pyrimido[4,5-d]azepin-4-yl)-benzonitrile] the Ki [5] was 50 nM, the Ki [1] was 25 nM and the Ki [2] was 400 nM. For the same molecule, the Ki [3] was 300 nM and the Ki [4] was 200 nM.
Molecule `Fc1ccc(-c2nc(Cc3ccccc3)nc3c2CCNCC3)cc1` [Example 54, 2-Benzyl-4-(4-fluoro-phenyl)-6,7,8,9-tetrahydro-5H-pyrimido[4,5-d]azepine] has a Ki [5] of 0.55 nM, a Ki [1] of 30 nM and a Ki [2] of 20 nM. For the same molecule, the Ki [3] was 5000 nM and the Ki [4] was 30 nM.
Molecule `Cc1ccc(-c2nc(Cc3ccccc3)nc3c2CCNCC3)cc1` [Example 55, 2-Benzyl-4-p-tolyl-6,7,8,9-tetrahydro-5H-pyrimido[4,5-d]azepine] has a Ki [5] of 0.42 nM, a Ki [1] of 2.5 nM and a Ki [2] of 16 nM. For the same molecule, the Ki [3] was 35 nM and the Ki [4] was 8.5 nM.
`FC(F)(F)c1ccc(-c2nc(Cc3ccccc3)nc3c2CCNCC3)cc1` [Example 56, 2-Benzyl-4-(4-trifluoromethyl-phenyl)-6,7,8,9-tetrahydro-5H-pyrimido[4,5-d]azepine] was tested, and the Ki [5] was 0.8 nM, the Ki [1] was 22 nM and the Ki [2] was 38 nM. The Ki [3] was 180 nM and the Ki [4] was 30 nM.
`CN1CCc2nc(C3CCCC3)nc(-c3ccc(F)cc3)c2CC1` [Example 58, 2-Cyclopentyl-4-(4-fluoro-phenyl)-7-methyl-6,7,8,9-tetrahydro-5H-pyrimido[4,5-d]azepine] was tested, and the Ki [5] was 2 nM, the Ki [1] was 40 nM and the Ki [2] was 30 nM. For the same molecule, the Ki [3] was greater than 10000 nM and the Ki [4] was 100 nM.
For `Cc1ccc(-c2nc(C3CCCC3)nc3c2CCN(C)CC3)cc1` [Example 59, 2-Cyclopentyl-7-methyl-4-p-tolyl-6,7,8,9-tetrahydro-5H-pyrimido[4,5-d]azepine], the Ki [5] was 1.5 nM, the Ki [1] was 7.8 nM and the Ki [2] was 29 nM. For the same molecule, the Ki [3] was 100 nM and the Ki [4] was 20 nM.
In the case of `Fc1ccc(-c2nc(Cc3ccccc3)nc3c2CNCCC3)cc1` [Example 69, 2-Benzyl-4-(4-fluoro-phenyl)-6,7,8,9-tetrahydro-5H-1,3,6-triaza-benzocycloheptene hydrochloride], the Ki [1] is reported as greater than 10000 nM, the Ki [2] is reported as 650 nM and the Ki [3] is reported as greater than 10000 nM. The Ki [4] was 7100 nM.
`CC(C)c1nc(-c2ccc(-c3ccc(Cl)cc3)cc2)c2c(n1)C(C)CN(Cc1ccccc1)C2` (stereo not drawn) [Example 99, 6-Benzyl-4-(4′-chloro-biphenyl-4-yl)-2-isopropyl-8-methyl-5,6,7,8-tetrahydro-pyrido[4,3-d]pyrimidine] showed a Ki [5] greater than 10000 nM, a Ki [1] greater than 10000 nM and a Ki [2] greater than 10000 nM. The Ki [3] was greater than 10000 nM.
`CC(C)c1nc(-c2ccc(F)c(Cl)c2)c2c(n1)C(C)CNC2` (stereo not drawn) [Example 101, 4-(3-Chloro-4-fluoro-phenyl)-2-isopropyl-8-methyl-5,6,7,8-tetrahydro-pyrido[4,3-d]pyrimidine hydrochloride] showed a Ki [5] of 400 nM, a Ki [1] greater than 10000 nM and a Ki [2] greater than 10000 nM. The Ki [3] was greater than 10000 nM.
`CC(C)c1nc(-c2ccccc2)c2c(n1)C(C)CNC2` (stereo not drawn) [Example 103, 2-Isopropyl-8-methyl-4-phenyl-5,6,7,8-tetrahydro-pyrido[4,3-d]pyrimidine] showed a Ki [5] of 40 nM, a Ki [1] of 1000 nM and a Ki [2] of 1000 nM. The Ki [3] was greater than 10000 nM.
`CC(C)c1nc(-c2ccc(C(F)(F)F)cc2)c2c(n1)C(C)CNC2` (stereo not drawn) [Example 104, 2-Isopropyl-8-methyl-4-(4-trifluoromethyl-phenyl)-5,6,7,8-tetrahydro-pyrido[4,3-d]pyrimidine] showed a Ki [5] of 700 nM, a Ki [1] of 500 nM and a Ki [2] of 3000 nM. The Ki [3] was greater than 10000 nM.
In the case of `CC(C)c1nc(-c2ccsc2)c2c(n1)C(C)CNC2` (stereo not drawn) [Example 105, 2-Isopropyl-8-methyl-4-thiophen-3-yl-5,6,7,8-tetrahydro-pyrido[4,3-d]pyrimidine], the Ki [5] is reported as 40 nM, the Ki [1] is reported as 100 nM and the Ki [2] is reported as 400 nM. It also gave a Ki [3] greater than 10000 nM.
In the case of `CC(C)c1nc2c(c(-c3ccc(F)cc3)n1)CN(Cc1ccccc1)C2` [Example 106, hydrochloride], the Ki [5] is reported as 90 nM, the Ki [1] is reported as 6300 nM and the Ki [2] is reported as greater than 10000 nM. It also gave a Ki [3] greater than 10000 nM.
For `CNC1CCc2c(nc(C(C)C)nc2-c2ccc(F)cc2)C1` (stereo not drawn) [Example 108, [4-(4-Fluoro-phenyl)-2-isopropyl-5,6,7,8-tetrahydro-quinazolin-7-yl]-methyl-amine hydrochloride], the Ki [5] was 18 nM, the Ki [1] was 42 nM and the Ki [2] was 1000 nM. For the same molecule, the Ki [3] was greater than 10000 nM.
`CC(C)c1nc2c(c(-c3ccc(F)cc3)n1)CCC(O)C2` (stereo not drawn) [Example 110, 4-(4-Fluoro-phenyl)-2-isopropyl-5,6,7,8-tetrahydro-quinazolin-7-ol] was tested, and the Ki [5] was 220 nM, the Ki [1] was 1200 nM and the Ki [2] was 4000 nM. The Ki [3] was greater than 10000 nM.
With `CC(C)c1nc2c(c(-c3ccc(F)cc3)n1)CCCC2` [Example 111, 4-(4-Fluoro-phenyl)-2-isopropyl-5,6,7,8-tetrahydro-quinazoline] the Ki [5] was 300 nM, the Ki [1] was 3500 nM and the Ki [2] was greater than 10000 nM. The Ki [3] was greater than 10000 nM.
`Cc1ccc(-c2cc(CN(C)C)nc(Cc3ccccc3)n2)cc1` [Example 112, (2-Benzyl-6-p-tolyl-pyrimidin-4-ylmethyl)-dimethyl-amine] showed a Ki [5] of 130 nM, a Ki [1] greater than 10000 nM and a Ki [2] greater than 10000 nM. For the same molecule, the Ki [3] was greater than 10000 nM.
In the case of `Cc1ccc(-c2cc(CN3CCN(C)CC3)nc(Cc3ccccc3)n2)cc1` [Example 113, 2-Benzyl-4-(4-methyl-piperazin-1-ylmethyl)-6-p-tolyl-pyrimidine], the Ki [5] is reported as 650 nM, the Ki [1] is reported as greater than 10000 nM and the Ki [2] is reported as greater than 10000 nM. It also gave a Ki [3] greater than 10000 nM.
`CNCc1cc(-c2ccc(F)cc2)nc(C(C)C)n1` [Example 114, [6-(4-Fluoro-phenyl)-2-isopropyl-pyrimidin-4-ylmethyl]-methyl-amine] showed a Ki [5] of 35 nM, a Ki [1] of 300 nM and a Ki [2] of 1000 nM. It also gave a Ki [3] greater than 10000 nM.
In the case of `Cc1ccc(-c2cc(CCN)nc(Cc3ccccc3)n2)cc1` [Example 115, 2-(2-Benzyl-6-p-tolyl-pyrimidin-4-yl)-ethylamine], the Ki [5] is reported as 1000 nM, the Ki [1] is reported as 5000 nM and the Ki [2] is reported as greater than 10000 nM. The Ki [3] was 5000 nM.
With `Cc1ccc(-c2nc(Cc3ccc(F)cc3)ncc2CN(C)C)cc1` [Example 116, [2-(4-Fluoro-benzyl)-4-p-tolyl-pyrimidin-5-ylmethyl]-dimethyl-amine] the Ki [5] was 2000 nM, the Ki [1] was greater than 10000 nM and the Ki [2] was greater than 10000 nM. It also gave a Ki [3] greater than 10000 nM.
`Fc1ccc(-c2nc(-c3ccccc3)nc3c2CNCC3)cc1` [Example 117, 4-(4-Fluoro-phenyl)-2-phenyl-5,6,7,8-tetrahydro-pyrido[4,3-d]pyrimidine] gave a Ki [5] of 50 nM, a Ki [1] of 1000 nM and a Ki [2] of 4000 nM. For the same molecule, the Ki [3] was greater than 10000 nM.
In the case of `CN(C)CCc1cc(-c2ccc(F)cc2)nc(C(C)(C)C)n1` [Example 167, {2-[2-tert-Butyl-6-(4-fluoro-phenyl)-pyrimidin-4-yl]-ethyl}-dimethyl-amine], the Ki [5] is reported as 7 nM, the Ki [1] is reported as 14 nM and the Ki [2] is reported as 200 nM. It also gave a Ki [3] of 450 nM.
